Measured values from patent publication US9856290B2, “Glycopeptide compositions and uses thereof” (SUSSEX RESEARCH LABORATORIES INC., priority 2013, dated 2018).
Marks after values point to notes of the source that are not given here. Primed or numbered codes have the meaning given here. The star is where a group is joined. Ac7‑β‑Cel = heptaacetyl-β-cellobioside (peracetylated β-cellobiose), CC(=O)OC[C@H]1O[C@@H](*)[C@H](OC(C)=O)[C@@H](OC(C)=O)[C@@H]1O[C@@H]1O[C@H](COC(C)=O)[C@@H](OC(C)=O)[C@H](OC(C)=O)[C@H]1OC(C)=O; Ac7‑β‑Lac = heptaacetyl-β-lactoside (peracetylated β-lactose), CC(=O)OC[C@H]1O[C@@H](O[C@H]2[C@H](OC(C)=O)[C@@H](OC(C)=O)[C@H](*)O[C@@H]2COC(C)=O)[C@H](OC(C)=O)[C@@H](OC(C)=O)[C@H]1OC(C)=O; Ac4‑β‑Gal = tetraacetyl-β-galactoside (peracetylated β-galactose), CC(=O)OC[C@H]1O[C@@H](*)[C@H](OC(C)=O)[C@@H](OC(C)=O)[C@H]1OC(C)=O; Ac3‑α‑GalNAc″ = peracetylated alpha-N-acetylgalactosamine, CC(=O)N[C@@H]1[C@@H](OC(C)=O)[C@@H](OC(C)=O)[C@@H](COC(C)=O)O[C@@H]1*; Ac3‑α‑Rha = triacetyl-α-rhamnoside (peracetylated α-rhamnose), CC(=O)O[C@@H]1[C@@H](OC(C)=O)[C@H](C)O[C@@H](*)[C@@H]1OC(C)=O; Ac3‑β‑GlcNAc = per-acetylated β-N-acetylglucosamine, CC(=O)N[C@@H]1[C@@H](OC(C)=O)[C@H](OC(C)=O)[C@@H](COC(C)=O)O[C@H]1*; Ac4‑β‑Glc = per-acetylated β-glucose (tetraacetyl), CC(=O)OC[C@H]1O[C@@H](*)[C@H](OC(C)=O)[C@@H](OC(C)=O)[C@@H]1OC(C)=O; Ac3‑β‑Fuc = triacetyl-β-fucoside (peracetylated β-fucose), CC(=O)O[C@@H]1[C@H](OC(C)=O)[C@H](C)O[C@H](*)[C@H]1OC(C)=O; Ac3‑β‑Xyl = triacetyl-β-xyloside (peracetylated β-xylose), CC(=O)O[C@@H]1[C@@H](OC(C)=O)[C@H](OC(C)=O)CO[C@H]1*; Palmitoyl = CCCCCCCCCCCCCCCC(=O)*

Experiments:
[1] = test system: Human Dermal Fibroblasts (KMST-6); experiment: ECM ELISA assay: elastin secretion by human dermal fibroblasts; assay type: cell-based; conditions: 5 μM, % compared to control set at 100%, normalized to total protein; for Elastin Secretion at 48 hours: KMST-6, 48 hours; for Elastin Secretion at 72 hours: KMST-6, 72 hours
Protocol: (§1) KMST-6 cells (Japan Health Sciences Foundation, JCRB0433) were seeded at 7,000 cells/ml in 12-well tissue culture treated plates (Falcon, 353043) in complete media. The complete media consisted of the following: MEM/EBSS (Hyclone, SH30024.01), 10% Heat-Inactivated FBS (Gibco, 10082-147), 1% L-Glutamine (Hyclone, SH30031.01), 1% Nucleosides (800 mg/L Adenosine, 850 mg/L Guanidine, 730 mg/L Cytidine, 730 mg/L Uridine and 240 mg/L Thymidine), 1% Penicillin/Streptomycin (HyClone, SV30010), 1% Sodium Pyruvate (HyClone, SH30239.01), 1% Non-Essential Amino Acids (Hyclone, SH30238.01) and 0.04% Gentamicin (Gibco, 15710-064). Cells were grown for 2 days prior to treatments. The media was aspirated and cells were washed with 1×PBS (Fisher, SH30256.01) and treated with 5 μM (1 mL/well) glycopeptides, reference (Pal-KTTKS, CPC Scientific, 822197), and control (DMSO, Fisher, BP231-100) in serum-free media supplemented with 50 μg/mL Sodium Ascorbate (Sigma, A4034) and 80 μg/mL β-Aminopropionate Fumarate (Sigma, A3134). The treated cells were incubated at 37° C. and 5% CO2 for 48 and 72 hours. At each timepoint, media from each treatment was collected and centrifuged at 1500 RPM for 15 minutes at 4° C. The supernatant was collected and stored at −80° C. for extracellular matrix protein quantification. The following kits were used for quantification of ECM proteins: Fibronectin (Takara, MK115) and Elastin (Uscn Life Science Inc., E91337Hu). The cells were harvest and lysed with 250 μL Lysis Buffer (20 mM Tris-HCl (Sigma, T1503), 137 mM NaCl (Sigma, S9888), 2 mM EDTA (Fisher, BP118), 1% IGEPAL (Sigma, 18896), 10% Glycerol (Sigma, G5516), 100 μM PMSF (Fisher, 36978) and 10 μg/mL Leupeptin (Sigma-Aldrich, L2884). They were placed on a container of ice on a plate shaker (Lab-Line Instruments, 3595) for 30 minutes. The lysate was centrifuged at 10,000 g for 5 minutes at 4° C. The supernatant was collected and used for protein quantification (BioRad, 500-0112).
(§2) To determine effects on extracellular matrix protein secretion, 5 μM of individual glycopeptides were incubated with Human Dermal Fibroblasts (KMST-6). The control sample cells were treated with DMSO (Fisher, BP231-100). As described previously, supernatant was collected from treated cells (at two time-points, 48 and 72 hours of treatment) and stored at −80° C. for subsequent extracellular matrix protein quantification using ELISA kits (Fibronectin (Takara, MK115), Elastin (Uscn Life Science Inc., E91337Hu). For the determination of total cellular protein, treated cells were harvested and lysed. The lysate was centrifuged, the supernatant was collected and then used for protein quantification (BioRad, 500-0112). ELISA plates were read on the plate reader (Molecular Devices) at absorbance of 450 nm and SoftMax Pro software was used to compute the μg/ml values of protein of interest derived from the generated 4-parameter fit standard curve. Each μg/ml of protein secreted was normalized to total protein per well. The data was analysed by averaging out normalized values from at least three independent experiments and presenting them as a % compared to control treatment set at 100% (Table 2-5). Statistical significance was performed using One-way ANOVA (p<0.05) where “*” represents statistical significance when compared to control and “#” represents statistical significance when compared to reference. […]

[2] = test system: Human Dermal Fibroblasts (KMST-6); experiment: ECM ELISA assay: fibronectin secretion by human dermal fibroblasts; assay type: cell-based; conditions: 5 μM, % compared to control set at 100%, normalized to total protein; for Fibronectin secretion at 48 hours: KMST-6, 48 hours; for Fibronectin Secretion at 72 hours: KMST-6, 72 hours
Protocol: as §1, §2

Substance	Elastin Secretion at 48 hours [1] [%]	Elastin Secretion at 72 hours [1]	Fibronectin secretion at 48 hours [2] [%]	Fibronectin Secretion at 72 hours [2] [%]
Pal-KT(Ac7-β-Cel)TKS-OH (Palmitoyl-KT(Ac7‑β‑Cel)TKS-OH; SMILES CCCCCCCCCCCCCCCC(=O)N[C@@H](CCCCN)C(=O)N[C@H](C(=O)N[C@H](C(=O)N[C@@H](CCCCN)C(=O)N[C@@H](CO)C(=O)O)[C@@H](C)O)[C@@H](C)O[C@@H]1O[C@H](COC(C)=O)[C@@H](O[C@@H]2O[C@H](COC(C)=O)[C@@H](OC(C)=O)[C@H](OC(C)=O)[C@H]2OC(C)=O)[C@H](OC(C)=O)[C@H]1OC(C)=O; listed as Homo sapiens) [GP004-9]	199.3	254.6* %	–	–
Pal-KTTKS(Ac3-β-GlcNAc)-OH (Palmitoyl-KTTKS(Ac3‑β‑GlcNAc)-OH; SMILES CCCCCCCCCCCCCCCC(=O)N[C@@H](CCCCN)C(=O)N[C@H](C(=O)N[C@H](C(=O)N[C@@H](CCCCN)C(=O)N[C@@H](CO[C@@H]1O[C@H](COC(C)=O)[C@@H](OC(C)=O)[C@H](OC(C)=O)[C@H]1NC(C)=O)C(=O)O)[C@@H](C)O)[C@@H](C)O; listed as Homo sapiens) [GP002-5]	159.3	137.3%	111.3	104.2
Pal-KTTKS(Ac3-α-GalNAc)-OH (Palmitoyl-KTTKS(Ac3‑α‑GalNAc″)-OH; SMILES CCCCCCCCCCCCCCCC(=O)N[C@@H](CCCCN)C(=O)N[C@H](C(=O)N[C@H](C(=O)N[C@@H](CCCCN)C(=O)N[C@@H](CO[C@H]1O[C@H](COC(C)=O)[C@H](OC(C)=O)[C@H](OC(C)=O)[C@H]1NC(C)=O)C(=O)O)[C@@H](C)O)[C@@H](C)O; listed as Homo sapiens) [GP002-1]	144.8	145.5%	114.7	108.0
Pal-KT(Ac7-β-Lac)TKS-OH (Palmitoyl-KT(Ac7‑β‑Lac)TKS-OH; SMILES CCCCCCCCCCCCCCCC(=O)N[C@@H](CCCCN)C(=O)N[C@H](C(=O)N[C@H](C(=O)N[C@@H](CCCCN)C(=O)N[C@@H](CO)C(=O)O)[C@@H](C)O)[C@@H](C)O[C@@H]1O[C@H](COC(C)=O)[C@@H](O[C@@H]2O[C@H](COC(C)=O)[C@H](OC(C)=O)[C@H](OC(C)=O)[C@H]2OC(C)=O)[C@H](OC(C)=O)[C@H]1OC(C)=O; listed as Homo sapiens) [GP004-5]	195.3	209.5%	–	–
Pal-KTT(Ac4-β-Gal)KS-OH (Palmitoyl-KTT(Ac4‑β‑Gal)KS-OH; SMILES CCCCCCCCCCCCCCCC(=O)N[C@@H](CCCCN)C(=O)N[C@H](C(=O)N[C@H](C(=O)N[C@@H](CCCCN)C(=O)N[C@@H](CO)C(=O)O)[C@@H](C)O[C@@H]1O[C@H](COC(C)=O)[C@H](OC(C)=O)[C@H](OC(C)=O)[C@H]1OC(C)=O)[C@@H](C)O; listed as Homo sapiens) [GP004-2]	186.5	138.3%	–	–
Pal-KT(Ac3-α-Rha)TKS-OH (Palmitoyl-KT(Ac3‑α‑Rha)TKS-OH; SMILES CCCCCCCCCCCCCCCC(=O)N[C@@H](CCCCN)C(=O)N[C@H](C(=O)N[C@H](C(=O)N[C@@H](CCCCN)C(=O)N[C@@H](CO)C(=O)O)[C@@H](C)O)[C@@H](C)O[C@@H]1O[C@@H](C)[C@H](OC(C)=O)[C@@H](OC(C)=O)[C@H]1OC(C)=O; listed as Homo sapiens) [GP004-7]	241.0	193.0%	–	–
Pal-KTTKS(Ac7-β-Lac)-OH (Palmitoyl-KTTKS(Ac7‑β‑Lac)-OH; SMILES CCCCCCCCCCCCCCCC(=O)N[C@@H](CCCCN)C(=O)N[C@H](C(=O)N[C@H](C(=O)N[C@@H](CCCCN)C(=O)N[C@@H](CO[C@@H]1O[C@H](COC(C)=O)[C@@H](O[C@@H]2O[C@H](COC(C)=O)[C@H](OC(C)=O)[C@H](OC(C)=O)[C@H]2OC(C)=O)[C@H](OC(C)=O)[C@H]1OC(C)=O)C(=O)O)[C@@H](C)O)[C@@H](C)O; listed as Homo sapiens) [GP004-6]	218.6	170.0%	–	–
Pal-KTTKS(Ac7-β-Cel)-OH (Palmitoyl-KTTKS(Ac7‑β‑Cel)-OH; SMILES CCCCCCCCCCCCCCCC(=O)N[C@@H](CCCCN)C(=O)N[C@H](C(=O)N[C@H](C(=O)N[C@@H](CCCCN)C(=O)N[C@@H](CO[C@@H]1O[C@H](COC(C)=O)[C@@H](O[C@@H]2O[C@H](COC(C)=O)[C@@H](OC(C)=O)[C@H](OC(C)=O)[C@H]2OC(C)=O)[C@H](OC(C)=O)[C@H]1OC(C)=O)C(=O)O)[C@@H](C)O)[C@@H](C)O; listed as Homo sapiens) [GP004-10]	211.3	187.0%	–	–
Pal-KTTKS(Ac3-β-Xyl)-OH (Palmitoyl-KTTKS(Ac3‑β‑Xyl)-OH; SMILES CCCCCCCCCCCCCCCC(=O)N[C@@H](CCCCN)C(=O)N[C@H](C(=O)N[C@H](C(=O)N[C@@H](CCCCN)C(=O)N[C@@H](CO[C@@H]1OC[C@@H](OC(C)=O)[C@H](OC(C)=O)[C@H]1OC(C)=O)C(=O)O)[C@@H](C)O)[C@@H](C)O; listed as Homo sapiens) [GP004-11]	178.8	121.3%	–	–
Pal-KTT(Ac4-β-Glc)KS-OH (Palmitoyl-KTT(Ac4‑β‑Glc)KS-OH; SMILES CCCCCCCCCCCCCCCC(=O)N[C@@H](CCCCN)C(=O)N[C@H](C(=O)N[C@H](C(=O)N[C@@H](CCCCN)C(=O)N[C@@H](CO)C(=O)O)[C@@H](C)O[C@@H]1O[C@H](COC(C)=O)[C@@H](OC(C)=O)[C@H](OC(C)=O)[C@H]1OC(C)=O)[C@@H](C)O; listed as Homo sapiens) [GP001-7]	–	–	101.3	109.4
Pal-KT(Ac4-β-Gal)TKS-OH (Palmitoyl-KT(Ac4‑β‑Gal)TKS-OH; SMILES CCCCCCCCCCCCCCCC(=O)N[C@@H](CCCCN)C(=O)N[C@H](C(=O)N[C@H](C(=O)N[C@@H](CCCCN)C(=O)N[C@@H](CO)C(=O)O)[C@@H](C)O)[C@@H](C)O[C@@H]1O[C@H](COC(C)=O)[C@H](OC(C)=O)[C@H](OC(C)=O)[C@H]1OC(C)=O; listed as Homo sapiens) [GP004-1]	215.3	202.0%	–	–
Pal-KTTKS(Ac3-α-Rha)-OH (Palmitoyl-KTTKS(Ac3‑α‑Rha)-OH; SMILES CCCCCCCCCCCCCCCC(=O)N[C@@H](CCCCN)C(=O)N[C@H](C(=O)N[C@H](C(=O)N[C@@H](CCCCN)C(=O)N[C@@H](CO[C@@H]1O[C@@H](C)[C@H](OC(C)=O)[C@@H](OC(C)=O)[C@H]1OC(C)=O)C(=O)O)[C@@H](C)O)[C@@H](C)O; listed as Homo sapiens) [GP004-8]	166.8	169.3%	–	–
Pal-KTTKS(Ac3-β-Fuc)-OH (Palmitoyl-KTTKS(Ac3‑β‑Fuc)-OH; SMILES CCCCCCCCCCCCCCCC(=O)N[C@@H](CCCCN)C(=O)N[C@H](C(=O)N[C@H](C(=O)N[C@@H](CCCCN)C(=O)N[C@@H](CO[C@H]1O[C@@H](C)[C@@H](OC(C)=O)[C@@H](OC(C)=O)[C@@H]1OC(C)=O)C(=O)O)[C@@H](C)O)[C@@H](C)O; listed as Homo sapiens) [GP004-12]	151.4	191.8%	–	–
